According to patent publication US20020026053A1, “Novel 3-(substituted) -2- indolinones compounds and use thereof as inhibitors of protein kinase activity” (priority 1997, published 2002):

Target: T1, EGFR (Homo sapiens, UniProt P00533)
T1 construct: endogenous in cells; host or cells: A431 cells (lysate, captured with SUMO1 anti-EGFR antibody)
Assay: Biochemical EGFR Assay
Design: concentration or dose not given beside the values
How it was run: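 Readout is ABTS absorbance at 410 nm after anti-phosphotyrosine and HRP-antibody detection of EGFR autophosphorylation. The kinase was immunocaptured from A431 lysate, exposed 30 min to test compound diluted 1:10 in TBS, then phosphorylated for 5 min with ATP/MnCl2 before an EDTA stop.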

T1 sequence (P00533 25-1210): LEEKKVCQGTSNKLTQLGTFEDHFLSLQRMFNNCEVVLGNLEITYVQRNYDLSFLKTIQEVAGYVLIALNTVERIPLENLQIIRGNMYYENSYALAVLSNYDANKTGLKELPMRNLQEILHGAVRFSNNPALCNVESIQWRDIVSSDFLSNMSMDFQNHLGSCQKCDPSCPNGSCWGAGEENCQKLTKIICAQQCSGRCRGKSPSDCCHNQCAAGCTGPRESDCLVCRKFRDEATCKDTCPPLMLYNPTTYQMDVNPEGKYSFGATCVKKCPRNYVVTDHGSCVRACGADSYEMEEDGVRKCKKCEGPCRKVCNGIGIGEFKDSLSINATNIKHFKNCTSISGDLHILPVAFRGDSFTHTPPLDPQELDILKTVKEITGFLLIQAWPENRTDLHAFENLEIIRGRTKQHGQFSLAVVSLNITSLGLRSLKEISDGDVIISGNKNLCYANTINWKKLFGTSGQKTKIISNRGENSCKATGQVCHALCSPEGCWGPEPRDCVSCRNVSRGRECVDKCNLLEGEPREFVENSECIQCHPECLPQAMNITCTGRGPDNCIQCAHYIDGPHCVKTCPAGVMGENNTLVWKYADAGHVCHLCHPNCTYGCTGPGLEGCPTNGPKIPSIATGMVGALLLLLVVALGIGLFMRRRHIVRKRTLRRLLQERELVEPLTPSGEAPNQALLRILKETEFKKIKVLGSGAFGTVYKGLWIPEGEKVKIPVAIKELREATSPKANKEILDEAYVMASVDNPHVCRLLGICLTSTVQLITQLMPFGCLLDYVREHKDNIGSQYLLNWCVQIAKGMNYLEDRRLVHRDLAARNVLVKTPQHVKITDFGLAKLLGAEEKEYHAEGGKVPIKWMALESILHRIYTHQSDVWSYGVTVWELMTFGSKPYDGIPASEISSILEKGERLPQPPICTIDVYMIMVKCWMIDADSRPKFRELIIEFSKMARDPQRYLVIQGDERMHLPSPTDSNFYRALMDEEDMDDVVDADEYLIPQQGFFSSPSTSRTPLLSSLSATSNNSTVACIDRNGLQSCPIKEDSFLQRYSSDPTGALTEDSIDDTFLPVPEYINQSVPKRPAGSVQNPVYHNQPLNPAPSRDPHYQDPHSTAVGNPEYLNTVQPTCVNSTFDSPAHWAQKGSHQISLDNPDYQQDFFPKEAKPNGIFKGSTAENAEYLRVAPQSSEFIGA

SMILES	Biochem EGFR % Inhibition (P.167)
COc1cccc(C=C2C(=O)Nc3ccc(I)cc32)c1 [10736/B10]	15.6%
O=C1Nc2ccc(I)cc2C1=Cc1ccccc1Cl [10736/B11]	−3.7%
Cc1c(Br)ccc2c1C(=Cc1ccc(Cl)cc1)C(=O)N2 [10736/C02]	−47.1%
Cc1c(Br)ccc2c1C(=Cc1ccccc1C(F)(F)F)C(=O)N2 [10736/C03]	0.3%
Cc1cccc(C=C2C(=O)Nc3ccc(Br)c(C)c32)c1 [10736/C04]	90.2%
Cc1ccc(C=C2C(=O)Nc3ccc(Br)c(C)c32)cc1 [10736/C05]	16.8%
Cc1c(Br)ccc2c1C(=Cc1cccc(Cl)c1)C(=O)N2 [10736/C06]	4.8%
Cc1c(Br)ccc2c1C(=Cc1cccc(F)c1)C(=O)N2 [10736/C07]	−8.1%
Cc1c(Br)ccc2c1C(=Cc1ccccc1F)C(=O)N2 [10736/C08]	−0.5%
CCc1ccc(C=C2C(=O)Nc3ccc(Br)c(C)c32)cc1 [10736/C09]	4.6%
COc1cccc(C=C2C(=O)Nc3ccc(Br)c(C)c32)c1 [10736/C10]	−0.3%
Cc1c(Br)ccc2c1C(=Cc1ccccc1Cl)C(=O)N2 [10736/C11]	−4.5%
CNS(=O)(=O)c1ccc2c(c1)C(=Cc1ccc(Cl)cc1)C(=O)N2 [10736/D02]	1.8%
CNS(=O)(=O)c1ccc2c(c1)C(=Cc1ccccc1C(F)(F)F)C(=O)N2 [10736/D03]	−3.7%
CNS(=O)(=O)c1ccc2c(c1)C(=Cc1cccc(C)c1)C(=O)N2 [10736/D04]	24.9%
CNS(=O)(=O)c1ccc2c(c1)C(=Cc1ccc(C)cc1)C(=O)N2 [10736/D05]	−7.9%
CNS(=O)(=O)c1ccc2c(c1)C(=Cc1cccc(Cl)c1)C(=O)N2 [10736/D06]	29.7%
CNS(=O)(=O)c1ccc2c(c1)C(=Cc1cccc(F)c1)C(=O)N2 [10736/D07]	47.1%
CNS(=O)(=O)c1ccc2c(c1)C(=Cc1ccccc1F)C(=O)N2 [10736/D08]	90.9%
CCc1ccc(C=C2C(=O)Nc3ccc(S(=O)(=O)NC)cc32)cc1 [10736/D09]	66.8%

SMILES	Biochem EGFR % Inhibition (P.167)
CNS(=O)(=O)c1ccc2c(c1)C(=Cc1cccc(OC)c1)C(=O)N2 [10736/D10]	10.5%
CNS(=O)(=O)c1ccc2c(c1)C(=Cc1ccccc1Cl)C(=O)N2 [10736/D11]	51.7%
O=C1Nc2ccc(S(=O)(=O)Nc3ccc(C(F)(F)F)cc3)cc2C1=Cc1ccc(Cl)cc1 [10736/E02]	2.0%
O=C1Nc2ccc(S(=O)(=O)Nc3ccc(C(F)(F)F)cc3)cc2C1=Cc1ccccc1C(F)(F)F [10736/E03]	90.2%
Cc1cccc(C=C2C(=O)Nc3ccc(S(=O)(=O)Nc4ccc(C(F)(F)F)cc4)cc32)c1 [10736/E04]	−17.2%
Cc1ccc(C=C2C(=O)Nc3ccc(S(=O)(=O)Nc4ccc(C(F)(F)F)cc4)cc32)cc1 [10736/E05]	17.0%
O=C1Nc2ccc(S(=O)(=O)Nc3ccc(C(F)(F)F)cc3)cc2C1=Cc1cccc(Cl)c1 [10736/E06]	47.3%
O=C1Nc2ccc(S(=O)(=O)Nc3ccc(C(F)(F)F)cc3)cc2C1=Cc1cccc(F)c1 [10736/E07]	−26.7%
O=C1Nc2ccc(S(=O)(=O)Nc3ccc(C(F)(F)F)cc3)cc2C1=Cc1ccccc1F [10736/E08]	−47.3%
CCc1ccc(C=C2C(=O)Nc3ccc(S(=O)(=O)Nc4ccc(C(F)(F)F)cc4)cc32)cc1 [10736/E09]	−40.1%
COc1cccc(C=C2C(=O)Nc3ccc(S(=O)(=O)Nc4ccc(C(F)(F)F)cc4)cc32)c1 [10736/E10]	−24.0%
O=C1Nc2ccc(S(=O)(=O)Nc3ccc(C(F)(F)F)cc3)cc2C1=Cc1ccccc1Cl [10736/E11]	−74.1%
O=C1Nc2ccc(S(=O)(=O)N3CCOCC3)cc2C1=Cc1ccc(Cl)cc1 [10736/F02]	−4.5%
O=C1Nc2ccc(S(=O)(=O)N3CCOCC3)cc2C1=Cc1ccccc1C(F)(F)F [10736/F03]	94.0%
Cc1cccc(C=C2C(=O)Nc3ccc(S(=O)(=O)N4CCOCC4)cc32)c1 [10736/F04]	−21.7%
Cc1ccc(C=C2C(=O)Nc3ccc(S(=O)(=O)N4CCOCC4)cc32)cc1 [10736/F05]	−6.0%
O=C1Nc2ccc(S(=O)(=O)N3CCOCC3)cc2C1=Cc1cccc(Cl)c1 [10736/F06]	25.1%
O=C1Nc2ccc(S(=O)(=O)N3CCOCC3)cc2C1=Cc1cccc(F)c1 [10736/F07]	−12.1%
O=C1Nc2ccc(S(=O)(=O)N3CCOCC3)cc2C1=Cc1ccccc1F [10736/F08]	−2.8%
CCc1ccc(C=C2C(=O)Nc3ccc(S(=O)(=O)N4CCOCC4)cc32)cc1 [10736/F09]	6.3%
